Results as given in ChEMBL document CHEMBL1201862, “PubChem BioAssay data set” (2004).
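Each compound was tested at five concentrations against cells in 96-well plates for 48 hours. The concentration for 50% growth inhibition is given as GI50.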 The source made the active and inactive calls. Cut-off read from the data, not from the text of the source: active = GI50 up to about 1.1 µM and inactive = higher. Square brackets hold non-standard residues; d marks the D form. Peptide text beside a SMILES is read from it. * marks the point of attachment. X26 = COC1=CC(=O)N(C(=O)[C@@H](O*)C(C)C)[C@H]1Cc1ccccc1; NMeV = CN[C@H](C(=O)O)C(C)C; Hexanoyl = CCCCCC(=O)*

What was measured:
Experiment in all cases: growth of human tumour cells (NCI), 48 h
A549 = system: A549
BT-549 = system: BT-549
DU-145 = system: DU-145
EKVX = system: EKVX
HCC 2998 = system: HCC 2998
HL-60 = system: HL-60
IGROV-1 = system: IGROV-1
K562 = system: K562
Malme-3M = system: Malme-3M
NCI-H460 = system: NCI-H460
OVCAR-3 = system: OVCAR-3
PC-3 = system: PC-3
SF-295 = system: SF-295
SK-MEL-28 = system: SK-MEL-28
SK-MEL-2 = system: SK-MEL-2
SK-MEL-5 = system: SK-MEL-5
T47D = system: T47D
UACC-257 = system: UACC-257

Structure (SMILES)	GI50 (A549)	GI50 (BT-549)	GI50 (DU-145)	GI50 (EKVX)	GI50 (HCC 2998)	GI50 (HL-60)	GI50 (IGROV-1)	GI50 (K562)	GI50 (Malme-3M)	GI50 (NCI-H460)	GI50 (OVCAR-3)	GI50 (PC-3)	GI50 (SF-295)	GI50 (SK-MEL-28)	GI50 (SK-MEL-2)	GI50 (SK-MEL-5)	GI50 (T47D)	GI50 (UACC-257)
O=C(/C=C/c1cccc(Br)c1)N1CCN(CCOC(c2ccccc2)c2ccccc2)CC1	43.2 µM (inactive)	26.5 µM (inactive)	37.5 µM (inactive)	> 100 µM (inactive)	46.6 µM (inactive)	17.4 µM (inactive)	81.7 µM (inactive)	13 µM (inactive)	36.4 µM (inactive)	31.8 µM (inactive)	50.5 µM (inactive)	44.1 µM (inactive)	53.7 µM (inactive)	> 100 µM (inactive)	43.6 µM (inactive)	16 µM (inactive)	23.6 µM (inactive)	63.5 µM (inactive)
Cc1cnc2sn(-c3ccc(Oc4ccccc4)cc3)c(=O)c2c1	16.8 µM (inactive)	23.8 µM (inactive)	14.1 µM (inactive)	13.4 µM (inactive)	6.47 µM (inactive)	4.36 µM (inactive)	14.7 µM (inactive)	–	1.7 µM (inactive)	7.41 µM (inactive)	6.11 µM (inactive)	13.4 µM (inactive)	15.5 µM (inactive)	10.3 µM (inactive)	28.3 µM (inactive)	9.59 µM (inactive)	14 µM (inactive)	11.9 µM (inactive)
Nc1ccccc1N/C=C\C(=O)C(Cl)(Cl)Cl	67.3 µM (inactive)	22.9 µM (inactive)	26.7 µM (inactive)	15 µM (inactive)	16.6 µM (inactive)	22.3 µM (inactive)	16.4 µM (inactive)	17.1 µM (inactive)	33.2 µM (inactive)	31.3 µM (inactive)	–	35.3 µM (inactive)	23.4 µM (inactive)	17.5 µM (inactive)	24.5 µM (inactive)	44 µM (inactive)	18.6 µM (inactive)	21.9 µM (inactive)
CCCCCNC(=O)OC1CCn2c1nc1c2C(=O)C(C)=C(N2CC2)C1=O (stereo not given)	0.526 µM (active)	1.67 µM (inactive)	0.351 µM (active)	–	0.311 µM (active)	6.05 µM (inactive)	1.37 µM (inactive)	1.67 µM (inactive)	2.19 µM (inactive)	0.218 µM (active)	1.79 µM (inactive)	1.05 µM (active)	1.2 µM (inactive)	1.41 µM (inactive)	1.63 µM (inactive)	0.568 µM (active)	3.23 µM (inactive)	1.67 µM (inactive)
C=CN1CCN(c2ccccc2)P1(=O)Oc1ccccc1 (stereo not given)	> 100 µM (inactive)	> 100 µM (inactive)	> 100 µM (inactive)	45 µM (inactive)	> 100 µM (inactive)	> 100 µM (inactive)	53.7 µM (inactive)	> 100 µM (inactive)	> 100 µM (inactive)	> 100 µM (inactive)	> 100 µM (inactive)	31.3 µM (inactive)	> 100 µM (inactive)	> 100 µM (inactive)	54.6 µM (inactive)	87.7 µM (inactive)	63.7 µM (inactive)	> 100 µM (inactive)
c1ccc(CCCCNCc2cc(CNCCCCc3ccccc3)cc(CNCCCCc3ccccc3)c2)cc1	0.263 µM (active)	1.63 µM (inactive)	0.762 µM (active)	1.64 µM (inactive)	0.149 µM (active)	0.226 µM (active)	0.815 µM (active)	0.272 µM (active)	1.76 µM (inactive)	0.364 µM (active)	1.47 µM (inactive)	1.41 µM (inactive)	1.81 µM (inactive)	0.948 µM (active)	1.82 µM (inactive)	1.81 µM (inactive)	1.79 µM (inactive)	0.859 µM (active)
Cc1cnc2[nH]c(-c3ccccc3)cc(=O)c2c1	0.0585 µM (active)	0.0306 µM (active)	0.0395 µM (active)	0.716 µM (active)	0.0372 µM (active)	< 0.01 µM (active)	0.0817 µM (active)	< 0.01 µM (active)	0.017 µM (active)	0.0259 µM (active)	0.0123 µM (active)	0.0161 µM (active)	0.0545 µM (active)	0.0363 µM (active)	0.0391 µM (active)	< 0.01 µM (active)	> 100 µM (inactive)	< 0.0218 µM (active)
O=C(NNCc1ccc(Cl)cc1)Nc1cccc2ccccc12	–	97.1 µM (inactive)	69.2 µM (inactive)	> 100 µM (inactive)	> 100 µM (inactive)	> 100 µM (inactive)	> 100 µM (inactive)	> 100 µM (inactive)	> 100 µM (inactive)	41.5 µM (inactive)	> 100 µM (inactive)	> 100 µM (inactive)	82 µM (inactive)	> 100 µM (inactive)	> 100 µM (inactive)	76.2 µM (inactive)	28.6 µM (inactive)	> 100 µM (inactive)
CCCCCC(=O)N[C@H](C(=O)N[C@H](C(=O)N(C)[C@H](C(=O)N1CCC[C@H]1C(=O)N1CCC[C@H]1C(=O)O[C@H](C(=O)N1C(=O)C=C(OC)[C@@H]1Cc1ccccc1)C(C)C)C(C)C)C(C)C)C(C)C (Hexanoyl-VV[NMeV]PP-X26)	–	59.8 µM (inactive)	> 100 µM (inactive)	85.9 µM (inactive)	> 100 µM (inactive)	> 100 µM (inactive)	> 100 µM (inactive)	71.1 µM (inactive)	> 100 µM (inactive)	> 100 µM (inactive)	> 100 µM (inactive)	25.2 µM (inactive)	> 100 µM (inactive)	> 100 µM (inactive)	36.3 µM (inactive)	–	> 100 µM (inactive)	87.7 µM (inactive)
O=C(NCCCCN(CCCNC(=O)C(F)(F)F)Cc1ccccc1)C(F)(F)F	> 100 µM (inactive)	> 100 µM (inactive)	> 100 µM (inactive)	> 100 µM (inactive)	> 100 µM (inactive)	> 100 µM (inactive)	25.2 µM (inactive)	> 100 µM (inactive)	–	> 100 µM (inactive)	> 100 µM (inactive)	92.3 µM (inactive)	> 100 µM (inactive)	> 100 µM (inactive)	> 100 µM (inactive)	> 100 µM (inactive)	> 100 µM (inactive)	> 100 µM (inactive)
C=CCN1C[C@H](C)N([C@@H](c2ccc(C(=O)N3CCCCC3)cc2)c2cccc(OC)c2)C[C@H]1C	30.5 µM (inactive)	32.9 µM (inactive)	80.5 µM (inactive)	44.4 µM (inactive)	31.6 µM (inactive)	1.35 µM (inactive)	63.2 µM (inactive)	20.6 µM (inactive)	18.5 µM (inactive)	31 µM (inactive)	49.2 µM (inactive)	21.9 µM (inactive)	45.2 µM (inactive)	–	22.2 µM (inactive)	19.1 µM (inactive)	24.5 µM (inactive)	21.2 µM (inactive)
